PMC12251482, “Floridoside Phosphotriester Derivatives: Synthesis and Inhibition of Human Neutrophils’ Oxidative Burst” (Molecules, 2025)

What was measured:
[1] = test system: PMA-stimulated human neutrophils; test: HOCl generation by PMA-stimulated neutrophils, oxidation of APF; type: cell-based; settings: PMA 160 nM, mean ± SEM
Experimental: APF is a non-fluorescent derivative of fluorescein, which is oxidized by HOCl, ONOO^−, and HO^• [87], in a concentration-dependent manner. Its selectivity was tested using the myeloperoxidase (MPO) inhibitor, 4-aminobenzoic acid hydrazide (ABAH). The addition of ABAH to human neutrophils, stimulated with PMA, decreased the APF-dependent fluorescence signal to the level of the control assay, ruling out the involvement of HO^• and ONOO^− [88]. The previously established methodology for monitoring oxidative burst modulation was adapted. In a 96-well plate, neutrophils (2 × 10^6 cells/mL) were incubated in the dark at 37 °C for 5 min with APF (2 μM) and the tested compounds (10–100 μM) or DMSO (4%). Quercetin (0.3–5.0 μM) and DPI (0.01–10 μM) were used as controls. After incubation, PMA (160 nM) was added, and the fluorescence (excitation at 495 nm and emission at 528 nm) was measured in a microplate reader (Synergy HT, BIO-TEK Instruments, Inc., Winooski, VT, USA). Kinetic readings were initiated immediately after the addition of APF. Obtained values correspond to the slope measured between 5 and 15 min. Effects are expressed as the percentage inhibition of APF oxidation. The results obtained represent at least three independent experiments.
APF is a non-ﬂuorescent derivative of ﬂuorescein, which is oxidized by HOCl, [20] ONOO-, and HO• [21] in a concentration- dependent manner. Its selectivity was tested using the myeloperoxidase (MPO) inhibitor, 4-aminobenzoic acid hydrazide (ABAH). The addition of ABAH to human neutrophils, stimulated with PMA, decreased the APF-dependent ﬂuorescence signal to the level of the control assay, ruling out the involvement of HO• and ONOO− [22]. The previously established methodology for monitoring oxidative burst modulation was adapted. In a 96-well plate, neutrophils (2 x 10^6 cells/mL) were incubated in the dark at 37 °C for 5 minutes with APF (2 µM) and the tested compounds (10 - 100 µM) or DMSO (4%). Quercetin (0.3 - 5.0 µM) and DPI (0.01 - 10 µM) were used as positive and negative controls, respectively. After incubation, PMA (160 nM) was added, and the ﬂuorescence (excitation at 495 nm and emission at 528 nm) was measured in a microplate reader (Synergy HT, BIO-TEK Instruments, Inc., Winooski, VT, USA). Kinetic readings were initiated immediately after the addition of APF. Obtained values correspond to the slope measured between 5 and 15 minutes. Eﬀects are expressed as the percentage inhibition of APF oxidation. The obtained results represent at least three independent experiments. […]
GraphPad Prism 6 software was used to plot the inhibition percentage versus compound concentration curves, enabling the determination of the concentration required to achieve 50% inhibition (IC50). GraphPad Prism 6 software was also used to perform all statistical analyses.
[…] was estimated by applying the one-way analysis (ANOVA), followed by the Bonferroni’s multiple comparisons test. In all cases, p-values < 0.05 were considered statistically signiﬁcant. The results are expressed as mean ± standard error of the mean (SEM).

[2] = test system: PMA-stimulated human neutrophils; test: PMA-induced neutrophils' oxidative burst, oxidation of luminol (chemiluminescence); type: cell-based
Experimental: Luminol is easily oxidized by reactive species produced during neutrophils’ oxidative burst, resulting in a chemiluminescent signal. The effect of the compounds under study on the modulation of neutrophil oxidative burst was determined after stimulation with PMA, a known neutrophil activator, because its effect is closely analogous to that obtained during the phagocytic process. Following a previously reported method, in a 96-well plate, neutrophils were incubated in the dark at 37 °C for 5 min with luminol (500 μM) and the tested compounds (10–100 μM) or DMSO (final concentration 4%). Quercetin, a flavonoid known for its anti-inflammatory activity (0.3–5.0 μM), and the inhibitor of NADPH oxidase, DPI (0.01–10 μM), were used as controls. After incubation, PMA (160 nM) was added, and the chemiluminescence was measured in a microplate reader (Synergy HT, BIO-TEK Instruments, Inc., Winooski, VT, USA). Kinetic readings were initiated immediately after cell stimulation. Measurements were taken at the peak of the curve. […] Effects are expressed as the inhibition percentage of luminol oxidation. The results obtained represent at least three independent experiments. […]
3.4 Evaluation of neutrophils' oxidative burst
3.4.1 Oxidation of luminol
Luminol is easily oxidized by reactive species produced during neutrophils’ oxidative burst, resulting in a chemiluminescent signal. The eﬀect of the compounds under study on the modulation of neutrophil oxidative burst was determined after stimulation with PMA, a known neutrophil activator, because its eﬀect is closely analogous to that obtained during the phagocytic process. Following a previously reported method, in a 96-well plate, neutrophils were incubated in the dark at 37 °C for 5 minutes with luminol (500 µM) and the tested compounds (10 - 100 µM) or DMSO (ﬁnal concentration 4%). Quercetin, a ﬂavonoid known for its anti-inﬂammatory activity (0.3 - 5.0 µM), and the inhibitor of NADPH oxidase, DPI (0.01 - 10 µM), were used as positive and negative controls, respectively. After incubation, PMA (160 nM) was added, and the chemiluminescence was measured in a microplate reader (Synergy HT, BIO-TEK Instruments, Inc., Winooski, VT, USA). Kinetic readings were initiated immediately after cell stimulation. Measurements were taken at the […]
peak of the curve. […] Eﬀects are expressed as the inhibition percentage of luminol oxidation. The obtained results represent at least three independent experiments.

3-Hydroxy-2-(galactopyranosyl)propyl dodecanoate [Compound 1e]
APF: highest obtained % of inhibition ([1]; at 50 µM): <20% ^50µM | IC50 ([2]; PMA 160 nM, mean ± SEM): 83 ± 7 µM

CCCCCCCCCCCC(=O)OCC(CO)OC1OC(COP(=O)(OCCN)OCCN)C(O)C(O)C1O (stereo not drawn) [Compound 1h, 2-(6-(bis(2-Aminoethoxy))phosphoryl)galactopyranosyl-3-hydroxypropyl dodecanoate]
inhibition at 25 µM ([1]; Homo sapiens, Neutrophil, at 25 µM, read-out: APF: highest obtained % of inhibition): < 20% | inhibition at 25 µM ([2]; Homo sapiens, Neutrophil, at 25 µM, PMA 160 nM, mean ± SEM, read-out: Luminol: highest obtained % of inhibition): 27 ± 15%

3-Hydroxy-2-galactopyranosylpropyl dioctyl phosphate [Compound 1b]
APF: highest obtained % of inhibition ([1]; at 25 µM): 29 ± 10% ^25µM | Luminol: highest obtained % of inhibition ([2]; at 25 µM, PMA 160 nM, mean ± SEM): 36 ± 9% ^25µM

OCC(CO)OC1OC(CO)C(O)C(O)C1O [Compound 1a, 2-O-D-(galactopyranosyl)glycerol]
inhibition at 50 µM ([1]; Homo sapiens, Neutrophil, at 50 µM, read-out: APF: highest obtained % of inhibition): 27 ± 6% | inhibition at 100 µM ([2]; Homo sapiens, Neutrophil, at 100 µM, PMA 160 nM, mean ± SEM, read-out: Luminol: highest obtained % of inhibition): 34 ± 7% | Effect on oxidative burst measured by luminol (in words) ([2]; PMA-induced): no relevant activity
